From PMC10824102, “Identification of small molecule inhibitors of G3BP-driven stress granule formation” (The Journal of Cell Biology, 2024)

Columns and labels:
[1] = test system: VCP A232E-induced stress granules in U2OS cells with tdTomato-tagged endogenous G3BP1; assay: Dissolution of stress granules induced by GFP-VCP A232E expression; type: cell-based; conditions: 50 μM for 30 min; automated puncta tracking for G3Ia, manual blinded cell tracking for G3Ib
Experimental: U2OS cells with knock-in of G3BP1-tdTomato ([Yang et al., 2020]) were seeded into 96-well plates (3904; Corning). Either GFP-VCP-A232E or GFP-FUS-R495X were transfected into cells using ViaFect transfection reagent (Promega) 24 h prior to the start of the experiment. For samples to be treated with compounds G3Ia or G3Ia′, Hoechst (1:5,000; Biotium) was added and incubated for 30 min prior to the start of the experiment, washed once with PBS, and the media was changed to 100 μl FluoroBrite DMEM media (Gibco) upon starting the experiment. Imaging of plates was performed on a Cytation C10 spinning disk confocal (BioTek) with a Hamamatsu Orca-Flash 4.0 camera using Gen5 software (version 3.11). Imaging was performed through an Olympus Plan Apo 40× 0.6 NA dry objective with an adjustable collar set to 0.5 μm thickness. Laser autofocus prior to imaging the tdTomato channel was utilized for each image. The temperature was maintained at 37°C on the instrument and the cells were supplied with 5% CO2. A 7 × 7 tilescan was taken at the center of each well, capturing the tdTomato and GFP channels (and Hoechst when present). After completing the tilescan, 100 μl FluoroBrite with 100 μM (2×) G3I compound (vortexed for 5 s) was added to each well and incubated for 20 min before starting another round of imaging in the same locations as the first round. Samples treated with G3Ib or G3Ib′ were analyzed manually, scoring each cell with spontaneous granules for the presence or absence of granules following treatment with the compound. For experiments in which G3I compounds were pretreated prior to transfection, 50 μM of indicated compound or vehicle control were added to U2OS cells 20 min prior to the addition of the transfection reagent. […]
Samples treated with G3Ia or G3Ia′ were analyzed using an automated pipeline. […]

[2] = test system: stress granule formation in U2OS cells stably expressing G3BP1-GFP; assay: Preincubation, arsenite-induced stress granule formation, live cell imaging in U2OS; type: cell-based; conditions: for reduction of total stress granule area / reduction of stress granule formation compared with inactive enantiomer: 20 min pretreatment; for reduction of total stress granule area / stress granule formation: 500 μM NaAsO2; for reduction of stress granule formation compared with inactive enantiomer: 250 μM NaAsO2; for stress granule formation: any tested dose (5, 20, 50 μM)
Experimental: For preincubation of compounds, U2OS or HeLa cells stably expressing G3BP1-GFP or CRISPR-modified cells expressing TDP-43-GFP/G3BP1-GFP were seeded into eight-well Lab-Tek chambered cover glass (Nunc). […] This solution was vortexed for 5 s, added to the cells at 250 μl per well, and left to incubate on the microscope for 20 min. Conditions were maintained at 37°C and 5% CO2 using a Bold Line Cage Incubator (Okolab) and an objective heater (Bioptechs). During this incubation time, 5 xy fields were stored per condition, with each field having ∼20–30 cells within it. After the 20-min incubation, 250 μl of 500 μM or 1 mM (2×) sodium arsenite (Sigma-Aldrich) diluted in the FluoroBrite media with an appropriate amount of G3I compound or DMSO was added to the sample. Imaging began immediately after, with images at each xy field being taken every 1 min. For heat shock experiments, U2OS G3BP1-GFP-expressing cells were seeded into a 35-mm glass bottom dish (MatTek). Prior to the experiment, 1.5 ml FluoroBrite DMEM media (Gibco) supplemented with 10% FBS and 4 mM L-glutamine was combined with 0.1% DMSO or 50 μM G3I compound. The sample was incubated on the environmentally controlled microscope for 20 min. During this incubation time, 10 xy fields were stored per condition. After the 20-min incubation, acquisition began with each xy position being imaged every 30 s. 2 min into the acquisition, the objective heater was ramped to 43°C and maintained this temperature until ramped back down to 37°C at 32 min into the acquisition. All imaging was acquired on a Yokogawa CSU W1 spinning disk attached to a Nikon Ti2 eclipse with a Photometrics Prime 95B camera using Nikon Elements software (v5.20.00 to v5.21.02). Imaging was performed through a Nikon Plan Apo 60× 1.40 NA oil objective with Immersol 518 F (refractive index 1.518; Zeiss), and Perfect Focus 2.0 (Nikon) was engaged for all captures.
Automated granule detection and measurement were performed using a combination of ilastik and CellProfiler software. Briefly, ND2 multipoint timelapse files were resaved as image sequences in Fiji with the Bio-Formats plugin so that individual frames of the movies could be treated as individual images for analysis. From there, pixel classification in ilastik was used to segment both stress granules and the total cellular area within the field using the G3BP1-GFP channel via machine learning. These segmentations, along with the original G3BP1-GFP image, were input into CellProfiler, where objects were defined using the masks from ilastik.

[3] = target: T1, full-length 6x-His-tagged human G3BP1 (Homo sapiens, UniProt Q13283); assay: Peptide displacement assay (Pep-FRET); type: binding; conditions: for IC50: displacement of FAM-labeled peptide probe, 60 min, room temperature; for displacement of FAM-labeled FGDF peptide from G3BP1: result in words, Fig. 1 C
T1 construct: 10 nM full-length 6x-His-tagged human G3BP1; made in house; host or cells: E. coli BL21 (DE3)
Experimental: Peptide displacement assays were performed in 20 μl total volume at 25°C at pH 7.4 in buffer containing 20 mM Tris-HCl, pH 7.5, 100 mM NaCl, 0.01% bovine serum albumin, 1 mM DTT, and 0.005% Tween-20. 10 nM full-length 6x-His-tagged human G3BP1 was added to the reaction mix containing the test compound and 0.5 nM anti-His-Tb antibody (PerkinElmer). […] Assay plates were shaken for 30 s, then centrifuged for 30 s, and then incubated at room temperature for 60 min. Data were read on an EnVision Multilabel plate reader at 495/520 nm. HTRF ratios were calculated as described by PerkinElmer and IC50s were calculated using GraphPad Prism 9 software and the [Inhibitor] versus Response—Variable Slope (four parameter) fit equation.

[4] = test system: G3BP1- and FUS R495X-positive puncta in U2OS cells with tdTomato-tagged endogenous G3BP1; assay: Dissolution of puncta induced by FUS R495X expression; type: cell-based; conditions: for G3BP1 puncta eliminated / reduction in number of puncta positive for FUS R495X: FUS R495X-transfected cells, 50 μM for 30 min; for extraction of FUS R495X from granules: result in words
Experimental: U2OS cells with knock-in of G3BP1-tdTomato ([Yang et al., 2020]) were seeded into 96-well plates (3904; Corning). Either GFP-VCP-A232E or GFP-FUS-R495X were transfected into cells using ViaFect transfection reagent (Promega) 24 h prior to the start of the experiment. For samples to be treated with compounds G3Ia or G3Ia′, Hoechst (1:5,000; Biotium) was added and incubated for 30 min prior to the start of the experiment, washed once with PBS, and the media was changed to 100 μl FluoroBrite DMEM media (Gibco) upon starting the experiment. Imaging of plates was performed on a Cytation C10 spinning disk confocal (BioTek) with a Hamamatsu Orca-Flash 4.0 camera using Gen5 software (version 3.11). Imaging was performed through an Olympus Plan Apo 40× 0.6 NA dry objective with an adjustable collar set to 0.5 μm thickness. Laser autofocus prior to imaging the tdTomato channel was utilized for each image. The temperature was maintained at 37°C on the instrument and the cells were supplied with 5% CO2. A 7 × 7 tilescan was taken at the center of each well, capturing the tdTomato and GFP channels (and Hoechst when present). After completing the tilescan, 100 μl FluoroBrite with 100 μM (2×) G3I compound (vortexed for 5 s) was added to each well and incubated for 20 min before starting another round of imaging in the same locations as the first round. Samples treated with G3Ib or G3Ib′ were analyzed manually, scoring each cell with spontaneous granules for the presence or absence of granules following treatment with the compound. For experiments in which G3I compounds were pretreated prior to transfection, 50 μM of indicated compound or vehicle control were added to U2OS cells 20 min prior to the addition of the transfection reagent. After 24 h of transfection, the cells were washed with PBS, fixed in 4% formaldehyde, and incubated with Hoechst (1:5,000; Biotium) in PBS for 30 min prior to the start of the experiment, washed once with PBS, and at room temperature imaging on the Cytation C10 spinning disk confocal was performed as described above.
Samples treated with G3Ia or G3Ia′ were analyzed using an automated pipeline. Segmentation was performed in both ilastik and Cellpose 2.0. Nuclear segmentation using the Hoechst channel and granule segmentation in both GFP and tdTomato channels was performed via pixel classification in ilastik using small cropped portions of the tilescan as the training dataset for each. Individual cell segmentation was performed in Cellpose 2.0 by inputting a merged RGB of the Hoechst and G3BP1-tdTomato channels. The Cellpose output was then eroded by one pixel and set as a binary mask in Fiji. The original three raw channels, three output masks from ilastik, and the one mask generated from Cellpose were all inputted into CellProfiler to generate per-cell measurements for granules as defined by GFP or tdTomato.

[5] = test system: stress granule formation in U2OS cells; assay: 24 h pretreatment followed by arsenite, immunofluorescence; type: cell-based; conditions: then 500 μM NaAsO2 for 30 min

T1 sequence (Q13283 whole entry): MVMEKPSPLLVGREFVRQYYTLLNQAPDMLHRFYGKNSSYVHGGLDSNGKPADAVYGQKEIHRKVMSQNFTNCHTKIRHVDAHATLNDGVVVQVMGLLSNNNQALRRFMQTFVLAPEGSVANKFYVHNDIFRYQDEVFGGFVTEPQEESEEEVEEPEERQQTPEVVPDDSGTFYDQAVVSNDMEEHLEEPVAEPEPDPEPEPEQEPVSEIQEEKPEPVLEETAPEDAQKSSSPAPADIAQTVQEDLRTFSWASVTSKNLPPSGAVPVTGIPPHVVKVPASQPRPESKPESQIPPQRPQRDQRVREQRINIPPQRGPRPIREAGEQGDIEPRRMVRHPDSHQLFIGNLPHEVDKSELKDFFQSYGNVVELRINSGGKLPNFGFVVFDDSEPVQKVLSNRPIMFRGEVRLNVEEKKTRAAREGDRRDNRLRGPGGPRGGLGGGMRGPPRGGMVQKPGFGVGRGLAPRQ

Compound	dissolution of VCP A232E-induced stress granules [1] [%]	reduction of total stress granule area ([2]; 5 μM) [%]	reduction of total stress granule area ([2]; 20 μM) [%]	reduction of stress granule formation compared with inactive enantiomer ([2]; 50 μM) [%]	reduction of total stress granule area ([2]; 50 μM) [%]	IC50 [3] [µM]	displacement of FAM-labeled FGDF peptide from G3BP1 [3]	G3BP1 puncta eliminated [4] [%]	reduction in number of puncta positive for FUS R495X [4] [%]	extraction of FUS R495X from granules [4]	stress granule formation after 24 h pretreatment ([5]; 5 μM)	stress granule formation after 24 h pretreatment ([5]; 20 μM)	stress granule formation after 24 h pretreatment ([5]; 50 μM)	stress granule formation [2]	stress granule formation after 24 h pretreatment ([5]; indicated doses)
COCCC(NC(=O)C(C)NC(=O)C(NC(=O)C(NC(=O)C(F)CC(C)(C)C)C(C)(C)O)C(C)c1ccccc1)C(=O)N(C)Cc1ccccc1 (stereo not shown) [G3Ia]	83	~36	~59	~86	~80	1.5	potently displaced	92	3	unable to extract FUS R495X from granules	no substantial impairment	no substantial impairment	inhibited stress granule formation	–	–
COCCC(NC(=O)C(C)NC(=O)C(NC(=O)C(NC(=O)C(F)CC(C)(C)C)C(C)(C)O)C(C)c1ccccc1)C(=O)N(C)Cc1ccccc1 (stereo not shown) [G3Ia′]	–	–	–	–	–	> 50	little effect	6	4	–	–	–	–	not significantly altered	no discernable effects
CC(NC(=O)C(NC(=O)C(NC(=O)CCC(C)(C)C)C(C)(C)O)C(C)c1ccccc1)C(=O)N1CCCC1c1ccccc1 (stereo not shown) [G3Ib]	69	~50	~85	~94	~93	0.7	potently displaced	–	–	unable to extract FUS R495X from granules	–	nearly completely inhibited	nearly completely inhibited	–	–
CC(NC(=O)C(NC(=O)C(NC(=O)CCC(C)(C)C)C(C)(C)O)C(C)c1ccccc1)C(=O)N1CCCC1c1ccccc1 (stereo not shown) [G3Ib′]	6	–	–	–	–	> 50	little effect	–	–	–	–	–	–	not significantly altered	no discernable effects
